The results in this text go back to patent publication US8829039B2, “Dihydroindolinone derivatives” (Shanghai Institute of Pharmaceutical Industry, priority 2008, dated 2014).

The subject of data set [1] is colon cancer cell COLO205. As to the kind of experiment: Inhibition of tumor cell proliferation in vitro (MTT), COLO205. It is filed as cell-based. The note with it: Homo sapiens, COLO 205, 48 hrs, read-out: Growth inhibition in vitro IC50. The method, then: (§1) The activity assay of the compounds of the invention was carried out through common methods in the art. Commercially available Sunitinib was used as positive control, and lung cancer cell H460, colon cancer cell COLO205 and HT29, breast cancer cell A435 were used as exemplary tumor cells. The tested compounds were prepared by the methods disclosed in the Examples above.
(§2) A certain amount (100 μL/well, 0.5−1×10^4 cells/mL) of lung cancer cell H460, colon cancer cell COLO205, and breast cancer cell A435, etc. in logarithmic growth phase were seeded in a 96-well plate, and incubated in an incubator for 24 hrs at 37° C. and 5% CO2. Afterwards, tested compounds and positive control (20 μL/wells) were added, followed by 80 µL of 10% serum medium, and then the tumor cells were incubated for further 48 hrs at 37° C. and 5% CO2. Afterwards, MTT (5 mg/mL) was added to the 96-well plates (20 μL/well), and the cells were incubated for another 4 h. After removing the supernatant, the cells were dissolved with DMSO (150 μL/well) and measured with a microplate reader at 490 nm.

Data set [2] has as its system breast cancer cell A435. Kind of data set: Inhibition of tumor cell proliferation in vitro (MTT), A435. Format: cell-based. The note with it: 48 hrs, read-out: Growth inhibition in vitro IC50. The method, then: as §1, §2
The test system of data set [3] is human colon cancer HT-29 cells transplanted in nude mice. As to the kind of experiment: Growth inhibition of human cancer HT-29 cells transplanted in nude mice. It is filed as in vivo. The note with it: for Body weight d0 / Body weight d21: nude mice with HT-29 tumor; for Body weight d0: d0, time of administration in separate cages; for Body weight d0 / TV d0: 30 mg/kg group; for Body weight d21 / T/C (%) / RTV / TV d21: 30 mg/kg intragastrically once a day for 21 days; for T/C (%): relative tumor proliferation rate TRTV/CRTV; for RTV: relative tumor volume TVt/TV0; for TV d0: tumor volume at d0, time of administration in separate cages; for TV d21: tumor volume at d21. On the procedure:
A piece of tumor tissue in vigorous growth phase was obtained and cut into the size of about 1.5 mm^3, and subcutaneously inoculated into the right axillary region of nude mice aseptically. Diameters of transplanted tumors in nude mice were measured with a vernier caliper. After tumors grew to 100˜300 mm^3, the animals were randomly divided into 6 groups: model control group, Sunitinib group (30 mg/kg), Compound 1 group (30 mg/kg), Compound 2 group (30 mg/kg), Compound 3 group (30 mg/kg), Compound 4 group (30 mg/kg). […] Meanwhile, the negative control group was administered equivalent amount of sterile saline. The dynamic observation of antitumor effects of compounds 1-4 and Sunitinib was performed by measuring tumor diameters. […] The general behavior of nude mice was observed and recorded daily. (1) Tumor volume (TV), calculated by the equation: […] wherein a, b represent length and width, respectively. […] RTV=TVt/TV0 wherein TV0 represents the tumor volume at the beginning of administration in separated cages (ie. d0), TVt represents the tumor volume of each measurement. […] T/C %=(TRTV/CRTV)×100% TRTV: RTV of positive control group and each test compound group. CRTV: RTV of model control group.

The subject of data set [4] is Fibroblast NIH/3T3. As to the kind of experiment: Inhibition of fibroblast NIH/3T3 proliferation (MTT). It is filed as cell-based. The conditions noted are these: Mus musculus, NIH3T3, 48 h, read-out: Inhibition of NIH/3T3 cell proliferation in vitro IC50. From the text:
The method commonly used at present for studying fibroblast proliferation associated diseases, i.e., for studying tissue and organ fibrosis, is measuring effects of test compounds on NIH/3T3 cell proliferation (Gao Z. M., Wan K., Effect of inhibition of NIH/3T3 cell proliferation by Cantharidin on prevention and treatment of organ and tissue fibrosis. Chinese Journal of Clinical Rehabilitation, 2004 (2). Tao Y. Y., Wang X. L., Effects of Salvianolic Acid-B on TGF-β1/ERK Signaling Transduction in NIH/3T3 Fibroblast. Journal of Capital Medical University, 2007 (2)).
Fibroblast NIH/3T3 in logarithmic growth phase was seeded in a 96-well plate, by a certain number of cells (100 μL/well, 0.5−1×10^4 cells/mL). After incubating for 24 h, the screened samples (20 μl/well) were added (directly added after cell suspension was seeded in the plate), incubated for further 48 h at 37° C. and 5% CO2. Afterwards, MTT (5 mg/mL) was added to the 96-well plate (20 μL/well). The cells were incubated for another 4 h, and then dissolved with DMSO (150 μL/well) and measured with a microplate reader at 490 nm. The inhibition rate and IC50 were calculated.

Data set [5] concerns Lung cancer cell H460. Kind of data set: Inhibition of tumor cell proliferation in vitro (MTT), H460. The conditions noted are these: Homo sapiens, NCI-H460, 48 hrs, read-out: Growth inhibition in vitro IC50. Format: cell-based. On the procedure: as §1, §2
The subject of data set [6] is human liver cancer cell SMMC-7721. Kind of data set: Anti-tumor activity assay (MTT), SMMC-7721. The note with it: 48 hrs, samples stored at −20° C. for one week, read-out: Inhibition rate; for inhibition at 0.1 µg/mL: final concentration 0.1 μg/mL; for inhibition at 1 µg/mL: final concentration 1 μg/mL. Format: cell-based. On the procedure:
(§3) These tests were carried out using conventional operations in the art. Specifically, the following materials and methods were employed:
(§4) Human cervical cancer cell Hela, human liver cancer cell SMMC-7721, human lung cancer cell A549, poorly differentiated human gastric adenocarcinoma cell BGC-823, human breast cancer cell MDA-MB-231.
(§5) To a bottle containing exponential growth phase cells in good condition, 0.25% trypsin solution was added. […] The cell suspension was seeded in a 96-well plate with an amount of 100 μL/well, incubated in a CO2 incubator for 24 hrs. 20 μL/well of tested compounds were added, followed by […], of 10% serum medium, and incubated for 48 hrs. 20 μL/well of MTT (5 mg/mL) was added to the 96-well plate, and the cells were incubated for 4 hrs in the incubator. After removing the supernatant, 150 μL/well of DMSO was added, and the cells were shaked in a horizontal swing bed for 10 minutes. Optical density value (OD value) of each well was measured with an ELISA analyzer at 490 nm, and cell inhibition rate was calculated. The corresponding solvent was used as negative control, and paclitaxel was used as positive control.

The test system of data set [7] is human lung cancer cell A549. As to the kind of experiment: Anti-tumor activity assay (MTT), A549. It is filed as cell-based. The conditions noted are these: 48 hrs, samples stored at −20° C. for one week, read-out: Inhibition rate; for inhibition at 0.1 µg/mL: final concentration 0.1 μg/mL; for inhibition at 1 µg/mL: final concentration 1 μg/mL. On the procedure: as §3, §4, §5

Data set [8] relates to human breast cancer cell MDA-MB-231. Kind of data set: Anti-tumor activity assay (MTT), MDA-MB-231. Format: cell-based. The note with it: 48 hrs, samples stored at −20° C. for one week, read-out: Inhibition rate; for inhibition at 0.1 µg/mL: final concentration 0.1 μg/mL; for inhibition at 1 µg/mL: final concentration 1 μg/mL; for inhibition at 10 µg/mL: final concentration 10 μg/mL. The method, then: as §3, §4, §5

Data set [9] deals with poorly differentiated human gastric adenocarcinoma cell BGC-823. As to the kind of experiment: Anti-tumor activity assay (MTT), BGC-823. Format: cell-based. The note with it: 48 hrs, samples stored at −20° C. for one week, read-out: Inhibition rate; for inhibition at 0.1 µg/mL: final concentration 0.1 μg/mL; for inhibition at 1 µg/mL: final concentration 1 μg/mL. On the procedure:
as §3, §4, §5

The subject of data set [10] is Human cervical cancer cell Hela. As to the kind of experiment: Anti-tumor activity assay (MTT), Hela. It is filed as cell-based. The conditions noted are these: 48 hrs, samples freshly prepared with DMSO, read-out: Inhibition rate; for inhibition at 0.1 µg/mL: final concentration 0.1 μg/mL; for inhibition at 1 µg/mL: final concentration 1 μg/mL; for inhibition at 10 µg/mL: final concentration 10 μg/mL. The method, then: as §3, §4, §5

`Cc1[nH]c(/C=C2\C(=O)Nc3ccc(F)cc32)c(C)c1C(=O)NCC1CCNCC1` [Compound 4]: in [1], the IC50 amounted to 400 nM. For the same compound, in data set [2], the IC50 was determined as 220 nM. Further, in [3], the “Body weight d0” value was determined as 20.0 ± 2.2 g, the “Body weight d21” value amounted to 20.3 ± 1.5 g, the “T/C (%)” value worked out at 41.0% and the RTV came to 3.6 ± 3.2. In data set [3], the “TV d0” value amounted to 195.0 ± 67.4 mm^3 and the “TV d21” value is listed as 791.7 ± 815.0 mm^3. In addition, in data set [4], the IC50 turned out to be 1180 nM. Also, the IC50 in data set [5] came to 580 nM.
Consider `Cc1[nH]c(/C=C2\C(=O)Nc3ccc(F)cc32)c(C)c1C(=O)NC1CCN(Cc2ccccc2)C1` (stereo not shown) [Compound 6, N-(1-benzylpyrrolidin-3-yl)-5-(5-fluoro-2-oxo-1,2-dihydroindole-3-methylene)-2,4-dimethyl-1H-pyrrole-3-formamide], for which the IC50 was 220 nM in data set [1], 87 nM in [2], 698 nM in data set [4] and 330 nM in data set [5].
Consider `Cc1[nH]c(/C=C2\C(=O)Nc3ccc(F)cc32)c(C)c1C(=O)Nc1ccc(N(C)C)cc1` [Compound 7, N-[4-(dimethylamino)phenyl]-5-(5-fluoro-2-oxo-1,2-dihydroindole-3-methylene)-2,4-dimethyl-1H-pyrrole-3-formamide], for which the IC50 in [1] amounted to 170 nM; in [2] it was 82 nM; in [4], 505 nM; in data set [5], 230 nM.
On the same counts, the results for `Cc1[nH]c(/C=C2\C(=O)Nc3ccc(F)cc32)c(C)c1C(=O)NCC(=O)Nc1ccc(N(C)C)cc1` [Compound 8, N-{2-[4-(dimethylamino)anilino]-2-oxoethyl}-5-(5-fluoro-2-oxo-1,2-dihydroindole-3-methylene)-2,4-dimethyl-1H-pyrrole-3-formamide] are 160 nM, 91 nM, 884 nM and 170 nM.
With `CCN1CCCC1CNC(=O)CNC(=O)c1c(C)[nH]c(/C=C2\C(=O)Nc3ccc(F)cc32)c1C` (stereo not shown) [Compound 11, N-{2-[(1-ethylpyrrolidin-2-yl)methylamino]-2-oxoethyl}-5-(5-fluoro-2-oxo-1,2-dihydroindole-3-methylene)-2,4-dimethyl-1H-pyrrole-3-formamide], the IC50 in data set [1] is 280 nM; in [2], 150 nM; in data set [5], 410 nM.
For `CCN1CCCC1CNC(=O)C(C)NC(=O)c1c(C)[nH]c(/C=C2\C(=O)Nc3ccc(F)cc32)c1C` (stereo not shown) [Compound 12, N-{2-[(1-ethylpyrrolidin-2-yl)methylamino]-1-oxoprop-2-yl}-5-(5-fluoro-2-oxo-1,2-dihydroindole-3-methylene)-2,4-dimethyl-1H-pyrrole-3-formamide], the IC50 is 310 nM in data set [1], 160 nM in data set [2] and 440 nM in [5].
Take `CC(=O)O[C@H]1C(=O)[C@@]2(C)[C@H]([C@H](OC(=O)c3ccccc3)[C@]3(O)C[C@H](OC(=O)[C@H](O)[C@@H](NC(=O)c4ccccc4)c4ccccc4)C(C)=C1C3(C)C)[C@]1(OC(C)=O)CO[C@@H]1C[C@@H]2O` [Paclitaxel, reference compound]: the inhibition at 0.1 µg/mL in [6] was -6.71%; in data set [7], 20.1%; in [8] it was 5.9%; in [9] it was 85.1%; in [10], 79.7%. The inhibition at 1 µg/mL in [6] is -6.59%; in data set [7], 23.8%; in data set [8], 4.9%; in data set [9], 86.6%; in data set [10], 78.1%. For the same compound, the inhibition at 10 µg/mL in data set [8] came to 29.5%; in data set [10], 72.7%.
With `CCN(CC)CCNC(=O)c1c(C)[nH]c(/C=C2\C(=O)Nc3ccc(F)cc32)c1C` [Sunitinib, reference compound], the IC50 in data set [1] turned out to be 550 nM; in data set [2] it was 630 nM; in [5], 680 nM. Also, the inhibition at 0.1 µg/mL is -38.8% in [6]; 7.29% in data set [7]; 6.4% in data set [8]; 9.53% in data set [9]; -0.21% in [10]. The inhibition at 1 µg/mL in [6] was -12.3%; in [7], 29.1%; in data set [8], 28.9%; in data set [9] it was 19.2%; in [10], 24.7%. For the same compound, the inhibition at 10 µg/mL in data set [6] (final concentration 10 μg/mL) is 72.5%; in [7] (final concentration 10 μg/mL), 98.7%; in [8] it was 90.2%; in [9] (final concentration 10 μg/mL), 88.8%; in data set [10], 99.2%. Moreover, the “Body weight d0” value in data set [3] turned out to be 20.4 ± 2.0 g. Also, the “Body weight d21” value in [3] came to 21.0 ± 1.9 g. For the same compound, the “T/C (%)” value in data set [3] is recorded as 51.5%. The same compound displayed an RTV in [3] of 4.6 ± 1.5. In [3], the “TV d0” value was 198.2 ± 62.4 mm^3. Besides, in data set [3], the “TV d21” value is reported as 911.8 ± 481.7 mm^3.
